{"source": "patent US20240216440A1", "about": "“STRING-LIKE AGGREGATES OF RETINAL PIGMENT EPITHELIAL CELLS, DEVICE AND PRODUCTION METHOD FOR PRODUCING SAME, AND THERAPEUTIC AGENT COMPRISING SAID STRING-LIKE AGGREGATES” (RIKEN, priority 2021, published 2024)", "format_in_all_cases": "cell-based, human", "key": {"[1]": {"tested_on": "hiPSC-RPEs (M8 line)", "assay": "String-like aggregate formation under different Y-27632 concentrations, M8 line", "settings": "for appearance of string-like aggregates: day 2", "procedure": "After thawing, hiPSC-RPE cells were cultured for 2 weeks, the cells were collected, and seeded in the number described in each experiment into each groove of the PDMS-based culture device, using 15 μl RPE maintenance medium containing the optimal concentration of Y-27632 (concentrations indicated for each experiment). In the present inventors' preliminary experiment (FIG. 14A), higher concentrations of Y-27632 appeared to affect the texture of the string-like aggregates to become tighter. […] Next, the present inventors directly compared string-like aggregates made with either 2.5 μM or 10 μM of Y-27632 (FIGS. 13B-G). […] On the other hand, string-like aggregates formed with 10 μM Y-27632 appeared more dense (FIG. 13B)."}, "[2]": {"tested_on": "hiPSC-RPE cells (M8 line)", "assay": "Adhesion and expansion of plated string-like aggregates on uncoated 24-well plate, M8 line", "settings": "for adhesion to plate and expansion of string-like aggregates: uncoated wells", "procedure": "The string-like aggregates were released from the grooves of the device, and the string-like aggregates were seeded onto an uncoated 24-well plate (Corning Incorporated) containing the mix medium. After adhesion of the string-like aggregates (2 to 3 days later), the medium was replaced with RPE maintenance medium (containing bFGF and SB431542). The dishes under culture were photographed using the IncuCyte Zoom system (Essen BioScience). From the obtained image data, expanded cells were manually marked using Fiji, and the expanded area was measured. In the present inventors' preliminary experiment (FIG. 14A), higher concentrations of Y-27632 appeared to affect the texture of the string-like aggregates to become tighter. […] The string-like aggregates on day 2 (FIGS. 13D and E) and day 3 (FIGS. 13F and G) were then used to compare cell expansion after plating in uncoated wells between string-like aggregates formed with 2.5 and 10 μM Y-27632."}, "[3]": {"tested_on": "hiPSC-RPE cells (201B7modFucci line)", "assay": "Adhesion/expansion assay of plated string-like aggregates, 201B7modFucci line", "procedure": "The string-like aggregates were released from the grooves of the device, and the string-like aggregates were seeded onto an uncoated 24-well plate (Corning Incorporated) containing the mix medium. After adhesion of the string-like aggregates (2 to 3 days later), the medium was replaced with RPE maintenance medium (containing bFGF and SB431542). The dishes under culture were photographed using the IncuCyte Zoom system (Essen BioScience). From the obtained image data, expanded cells were manually marked using Fiji, and the expanded area was measured. The present inventors tested whether another hiPSC line could similarly form string-like aggregates. The present inventors used the 201B7modFucci line to induce RPE differentiation and compared it with hiPSC(M8)-RPE. hiPSC(201B7modFucci)-RPE also formed string-like aggregates like hiPSC(M8)-RPE, but the 201B7modFucci line required a Y-27632 concentration of 5 μM or higher to stably form string-like aggregates (FIG. 15-1A). The optimal Y-27632 concentration for adhesion/expansion assays was 5 μM for hiPSC(201B7modFucci)-string-like aggregates, and the optimal Y-27632 concentration for the desired adhesion/expansion effect varied depending on the cell line used and required optimization (FIGS. 14D and E). […]"}}, "note": "Entries after “also recorded” stand apart in the source; their conditions may differ."}
{"compound": "C[C@@H](N)[C@H]1CC[C@H](C(=O)Nc2ccncc2)CC1", "note": "[Y-27632]", "values": [{"measurement": "string-like aggregate formation", "setting": "[1]; M8 line, 0 and 1 μM Y-27632", "value": "not successfully formed"}, {"measurement": "Y-27632 concentration at which hiPSC-RPEs were able to form string-like aggregate shape", "setting": "[1]; M8 line, tested 0, 1, 2, 2.5 and 10 μM", "value": "above 2 μM"}, {"measurement": "appearance of string-like aggregates", "setting": "[1]; formed with 2.5 μM Y-27632", "value": "flat and loose"}, {"measurement": "appearance of string-like aggregates", "setting": "[1]; formed with 10 μM Y-27632", "value": "more dense"}, {"measurement": "adhesiveness of string-like aggregates to the plate", "setting": "[2]; aggregates added with 2-2.5 μM Y-27632, M8 line, day 2 aggregates, 24-well plate", "value": "highest adhesiveness to the plate"}, {"measurement": "adhesion to plate and expansion of string-like aggregates", "setting": "[2]; aggregates formed with 2.5 μM Y-27632, compared with 10 μM, day 2 and day 3 aggregates", "value": "tended to attach to the plate and begin to expand early after placing; also recorded: higher adhesiveness to the plate, covered more area, and began to expand faster on the plate"}, {"measurement": "adhesion to plate and expansion of string-like aggregates", "setting": "[2]; aggregates formed with 10 μM Y-27632", "value": "expansion was delayed; also recorded: tended to be coil-like and moved around for several days before settling and starting to expand"}, {"measurement": "adhesiveness of string-like aggregates to the plate", "setting": "[3]; aggregates added with 2-2.5 μM Y-27632, 201B7modFucci line, day 2 aggregates, 24-well plate", "value": "consistently adherent to the plate"}, {"measurement": "optimal Y-27632 concentration for adhesion/expansion assays", "setting": "[3]; hiPSC(201B7modFucci)-string-like aggregates", "value": 5, "unit": "µM"}]}
